{"source": "patent US11945826B2", "about": "“Hydroxypyridoxazepines as NRF2 activators” (GLAXOSMITHKLINE INTELLECTUAL PROPERTY DEVELOPMENT LIMITED, priority 2019, dated 2024)", "tested_on": "murine TAC model", "test": "Mouse Transverse Aortic Constriction (TAC) Left Ventricular Pressure Overload Model", "assay_type": "in vivo, C57BLK/6J mice", "conditions": "10-week mouse TAC, Example 1 at 1, 3, 10 mg/kg/d, Example B at 100 mg/kg/d", "excerpt": "Male C57BLK/6J mice (10-12 weeks old) were individually housed and acclimated to a standard powdered rodent diet for 1-3 days. Water was offered ad libitum throughout the study. Mice were initially anesthetized in a chamber using an 3% isoflurane with oxygen (1.0 L/min), and then maintained at 1.5% via nose cone (without intubation). A small incision (˜5 mm) was made just left of midline and just above the rib cage at the level of the suprasternal notch. The muscle tissue was retracted to expose the area above the pleural cavity. The lobes of the thymus were separated and retracted to expose the aortic arch. Fine surgical forceps with blunted tips were used to expose a region above and below the aorta. A micro blunt hook tied with 7-0 silk surgical suture was looped under the aorta and the suture pulled through. The suture was tied-off against a small piece of blunted 27 G needle and the needle was then removed creating the aortic constriction (a 60-70% constriction of the lumen). The incision was closed using 6-0 silk suture for the muscle layer, then the skin with Medbond. The sham procedure was identical without ligation of aorta. Depending on the individual study designs, drug administration began either on the day of surgery, or 1-2 weeks after surgery (detailed in figure legends) and continued until the end of study. Compounds were administered in the mouse chow unless otherwise noted in FIG. 12 legends. TAC study duration was either 6 weeks or 10 weeks in duration. All TAC study endpoints were collected at the end of study. Following heart dissections, samples were either snap frozen in liquid nitrogen and stored at −80° C. or placed in 10% neutral buffered formalin until analysis.\nEchocardiography: For mouse TAC studies, echocardiography was performed on a Vevo 2100 high frequency imaging system. Animals were anesthetized with 2-3% isoflurane and sedation maintained with 1% isoflurane with animals on a heating pad. B-mode imaging of three cardiac cycles was used to assess ejection fraction (EF), end diastolic volume (EDV), end systolic volume (ESV), LV mass, and heart rate. ECG was used to measure heart rate during the echocardiography procedure.\nNADPH dehydrogenase [quinone]-1 (NQO1) activity: Left ventricular (LV) tissue NQO1 activity was determined using an NQO1 assay kit per manufacturer's protocol (Abcam, Cambridge MA)\nThe KEAP1 blockers/Nrf2 activators, (R)-3-(1,4-dimethyl-1H-benzo[d][1,2,3]triazol-5-yl)-3-(3-(((R)-2-ethyl-7-hydroxy-2,3-dihydropyrido[2,3-f][1,4]oxazepin-4(5H)-yl)methyl)-4-methylphenyl)propanoic acid, hydrochloride, or a tautomer thereof (Example 1) (in dose-response) and (S)-3-(1,4-dimethyl-1H-benzo[d][1,2,3]triazol-5-yl)-3-(3-(((R)-2-ethyl-2,3-dihydropyrido[3,4-f][1,4]oxazepin-4(5H)-yl)methyl)-4-methylphenyl)-2,2-dimethylpropanoic acid (Example B) were evaluated in a 10-week mouse TAC model of severe hemodynamic stress.\nFIG. 12 depicts the effect of the KEAP1-kelch domain blockers/Nrf2 activators (R)-3-(1,4-dimethyl-1H-benzo[d][1,2,3]triazol-5-yl)-3-(3-(((R)-2-ethyl-7-hydroxy-2,3-dihydropyrido[2,3-f][1,4]oxazepin-4(5H)-yl)methyl)-4-methylphenyl)propanoic acid, hydrochloride, or a tautomer thereof (Compound of Example 1) and (S)-3-(1,4-dimethyl-1H-benzo[d][1,2,3]triazol-5-yl)-3-(3-(((R)-2-ethyl-2,3-dihydropyrido[3,4-f][1,4]oxazepin-4(5H)-yl)methyl)-4-methylphenyl)-2,2-dimethylpropanoic acid (Compound B) on cardiac function, remodeling, and NQO1 enzyme activity in the murine 10-week TAC model. All compounds were dosed in chow beginning 2-weeks after TAC. […]"}
{"smiles": "CC[C@@H]1CN(Cc2cc([C@@H](CC(=O)O)c3ccc4c(nnn4C)c3C)ccc2C)Cc2nc(O)ccc2O1", "note": "[Example 1, (R)-3-(1,4-dimethyl-1H-benzo[d][1,2,3]triazol-5-yl)-3-(3-(((R)-2-ethyl-7-hydroxy-2,3-dihydropyrido[2,3-f][1,4]oxazepin-4(5H)-yl)methyl)-4-methylphenyl)propanoic acid]", "values": [{"measurement": "cardiac function as assessed by ejection fraction", "setting": "daily in chow for eight weeks from 2 weeks after TAC", "result": "full normalization of cardiac function"}, {"measurement": "NAD(P)H quinone oxidoreductase 1 (NQO1) in the LV", "setting": "daily in chow for eight weeks", "result": "significant dose-related elevations"}, {"measurement": "cardiac hypertrophy (left ventricular mass)", "setting": "daily in chow for eight weeks", "result": "did not influence cardiac hypertrophy"}, {"measurement": "unloading the heart (blood pressure) or heart rate", "setting": "daily in chow for eight weeks", "result": "nor did the ejection fraction change occur by unloading the heart (i.e., lowering blood pressure) or increasing the heart rate"}]}
